The results in this text go back to ChEMBL document CHEMBL5291721, “A preclinical secondary pharmacology resource illuminates target-adverse drug reaction associations of marketed drugs” (Nat Commun, 2023).

For orientation: AC50 means the midpoint of the concentration-response curve, whichever way the signal moves. Lower therefore signals activity at low concentration.

The target of test [1] is T1, Alpha-2B adrenergic receptor (Homo sapiens, UniProt P18089).
T1 sequence (P18089 whole entry): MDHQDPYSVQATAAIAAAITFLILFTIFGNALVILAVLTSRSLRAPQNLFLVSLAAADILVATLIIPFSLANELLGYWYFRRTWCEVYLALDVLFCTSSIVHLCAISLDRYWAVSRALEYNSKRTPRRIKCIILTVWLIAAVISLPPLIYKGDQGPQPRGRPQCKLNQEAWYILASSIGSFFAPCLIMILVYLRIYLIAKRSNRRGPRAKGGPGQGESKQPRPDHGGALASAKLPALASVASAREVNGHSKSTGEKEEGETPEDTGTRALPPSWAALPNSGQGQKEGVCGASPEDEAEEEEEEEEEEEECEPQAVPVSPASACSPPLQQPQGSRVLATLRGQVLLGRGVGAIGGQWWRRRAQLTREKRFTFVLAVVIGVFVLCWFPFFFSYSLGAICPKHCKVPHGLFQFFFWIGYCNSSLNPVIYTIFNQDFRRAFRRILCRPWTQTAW

For test [2], the target named is Muscarinic acetylcholine receptor M3 (Homo sapiens, UniProt P20309).
Muscarinic acetylcholine receptor M3, sequence (P20309 whole entry): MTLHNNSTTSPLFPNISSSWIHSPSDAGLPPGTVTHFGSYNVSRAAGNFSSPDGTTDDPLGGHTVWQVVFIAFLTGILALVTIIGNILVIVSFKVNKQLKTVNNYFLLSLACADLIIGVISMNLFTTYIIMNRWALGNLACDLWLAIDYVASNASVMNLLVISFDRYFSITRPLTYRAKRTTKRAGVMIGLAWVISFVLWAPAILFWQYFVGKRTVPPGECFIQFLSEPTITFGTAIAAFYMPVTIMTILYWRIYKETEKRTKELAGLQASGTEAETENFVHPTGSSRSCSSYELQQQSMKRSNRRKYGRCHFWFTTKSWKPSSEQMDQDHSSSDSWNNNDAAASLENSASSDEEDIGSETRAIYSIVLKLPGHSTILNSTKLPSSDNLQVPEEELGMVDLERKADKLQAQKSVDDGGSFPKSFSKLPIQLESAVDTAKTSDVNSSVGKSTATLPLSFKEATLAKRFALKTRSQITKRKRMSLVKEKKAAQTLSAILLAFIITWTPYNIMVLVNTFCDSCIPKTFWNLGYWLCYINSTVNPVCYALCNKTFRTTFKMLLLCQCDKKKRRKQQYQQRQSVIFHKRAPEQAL
In test [3] the target is T2, Gamma-aminobutyric acid receptor subunit alpha-1/alpha-2/beta-2/gamma-2 (Homo sapiens, UniProt P14867+P18507+P47869+P47870). In kind it is functional, cell-based.
T2 sequence (P14867 whole entry): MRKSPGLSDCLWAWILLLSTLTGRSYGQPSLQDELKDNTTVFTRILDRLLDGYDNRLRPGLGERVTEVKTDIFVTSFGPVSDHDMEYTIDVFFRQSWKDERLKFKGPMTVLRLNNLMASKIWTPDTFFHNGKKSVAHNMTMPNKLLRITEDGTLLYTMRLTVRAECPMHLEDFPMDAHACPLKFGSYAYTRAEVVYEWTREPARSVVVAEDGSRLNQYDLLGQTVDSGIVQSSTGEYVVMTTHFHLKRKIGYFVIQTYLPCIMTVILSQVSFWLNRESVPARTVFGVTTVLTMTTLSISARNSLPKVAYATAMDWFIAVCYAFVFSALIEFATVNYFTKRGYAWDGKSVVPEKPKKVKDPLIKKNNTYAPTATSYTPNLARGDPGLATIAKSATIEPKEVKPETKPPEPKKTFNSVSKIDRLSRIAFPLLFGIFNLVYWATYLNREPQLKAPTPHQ
T2 sequence (P47870 whole entry): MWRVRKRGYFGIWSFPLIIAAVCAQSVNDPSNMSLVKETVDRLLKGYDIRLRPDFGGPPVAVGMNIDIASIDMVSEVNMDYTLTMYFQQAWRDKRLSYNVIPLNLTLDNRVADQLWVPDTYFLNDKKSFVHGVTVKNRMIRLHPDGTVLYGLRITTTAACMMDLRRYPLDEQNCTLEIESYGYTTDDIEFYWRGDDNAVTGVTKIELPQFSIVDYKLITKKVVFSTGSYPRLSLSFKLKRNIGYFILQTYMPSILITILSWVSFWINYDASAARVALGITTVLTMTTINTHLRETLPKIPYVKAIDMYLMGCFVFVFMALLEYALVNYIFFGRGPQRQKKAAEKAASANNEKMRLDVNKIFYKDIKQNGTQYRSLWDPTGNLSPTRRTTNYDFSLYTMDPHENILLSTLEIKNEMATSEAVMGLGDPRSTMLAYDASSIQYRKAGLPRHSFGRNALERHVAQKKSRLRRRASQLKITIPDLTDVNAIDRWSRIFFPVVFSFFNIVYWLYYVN
T2 sequence (P18507 whole entry): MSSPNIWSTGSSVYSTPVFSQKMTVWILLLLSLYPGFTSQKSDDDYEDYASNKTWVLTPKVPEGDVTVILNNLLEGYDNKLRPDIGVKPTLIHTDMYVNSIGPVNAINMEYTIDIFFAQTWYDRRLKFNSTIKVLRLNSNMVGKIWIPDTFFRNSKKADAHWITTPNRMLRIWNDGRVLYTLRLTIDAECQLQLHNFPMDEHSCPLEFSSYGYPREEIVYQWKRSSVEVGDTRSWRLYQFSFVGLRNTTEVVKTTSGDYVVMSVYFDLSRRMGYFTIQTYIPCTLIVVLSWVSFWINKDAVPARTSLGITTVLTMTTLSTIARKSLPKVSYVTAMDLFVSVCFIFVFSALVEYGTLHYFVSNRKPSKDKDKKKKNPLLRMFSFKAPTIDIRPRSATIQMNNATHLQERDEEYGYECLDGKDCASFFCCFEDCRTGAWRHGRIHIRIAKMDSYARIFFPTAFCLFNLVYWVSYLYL
T2 sequence (P47869 whole entry): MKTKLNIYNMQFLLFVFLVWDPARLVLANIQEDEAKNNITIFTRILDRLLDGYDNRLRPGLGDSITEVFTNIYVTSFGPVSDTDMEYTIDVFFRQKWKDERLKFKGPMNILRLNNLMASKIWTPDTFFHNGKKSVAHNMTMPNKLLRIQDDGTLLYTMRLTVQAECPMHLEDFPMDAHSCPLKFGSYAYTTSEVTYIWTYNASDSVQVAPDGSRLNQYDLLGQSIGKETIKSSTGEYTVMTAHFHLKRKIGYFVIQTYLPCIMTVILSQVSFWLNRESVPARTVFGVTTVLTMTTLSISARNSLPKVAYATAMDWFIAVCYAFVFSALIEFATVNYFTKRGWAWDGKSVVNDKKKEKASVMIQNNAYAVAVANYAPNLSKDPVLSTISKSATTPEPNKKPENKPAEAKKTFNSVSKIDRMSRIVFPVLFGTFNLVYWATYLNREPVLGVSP
Test [4] deals with T2, Gamma-aminobutyric acid receptor subunit alpha-1/alpha-2/beta-2/gamma-2. It counts as functional, cell-based. The source holds these as a separate data set.
For the next test, the target named is Mu-type opioid receptor (Homo sapiens, UniProt P35372). Put plainly: biochemical. It counts as functional.
Mu-type opioid receptor, sequence (P35372 whole entry): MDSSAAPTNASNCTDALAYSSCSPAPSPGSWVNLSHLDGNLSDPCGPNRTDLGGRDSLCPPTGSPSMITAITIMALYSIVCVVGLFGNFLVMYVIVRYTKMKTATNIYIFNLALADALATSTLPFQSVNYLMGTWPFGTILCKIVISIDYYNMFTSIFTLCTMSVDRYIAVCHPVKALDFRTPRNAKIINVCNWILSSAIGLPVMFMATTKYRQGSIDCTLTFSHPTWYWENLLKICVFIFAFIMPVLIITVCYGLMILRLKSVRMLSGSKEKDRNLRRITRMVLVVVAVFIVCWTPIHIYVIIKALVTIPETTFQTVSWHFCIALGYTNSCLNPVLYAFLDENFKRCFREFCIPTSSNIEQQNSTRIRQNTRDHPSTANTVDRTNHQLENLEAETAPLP
For test [5], the target named is Neurotensin receptor type 1 (Homo sapiens, UniProt P30989).
Neurotensin receptor type 1, sequence (P30989 whole entry): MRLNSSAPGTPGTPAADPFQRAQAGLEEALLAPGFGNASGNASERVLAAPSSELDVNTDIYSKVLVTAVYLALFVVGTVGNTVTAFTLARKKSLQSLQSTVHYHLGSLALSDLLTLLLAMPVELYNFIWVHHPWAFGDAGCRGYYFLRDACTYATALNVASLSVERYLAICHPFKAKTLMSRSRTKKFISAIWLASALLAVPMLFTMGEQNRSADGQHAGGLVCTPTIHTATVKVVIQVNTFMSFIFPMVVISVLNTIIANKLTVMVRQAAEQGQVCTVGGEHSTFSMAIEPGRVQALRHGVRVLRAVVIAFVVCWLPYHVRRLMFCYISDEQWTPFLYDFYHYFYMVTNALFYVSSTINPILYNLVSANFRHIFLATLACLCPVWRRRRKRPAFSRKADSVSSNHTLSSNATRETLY
The target in test [6] is T3, Corticotropin-releasing factor receptor 1 (Homo sapiens, UniProt P34998).
T3 sequence (P34998 whole entry): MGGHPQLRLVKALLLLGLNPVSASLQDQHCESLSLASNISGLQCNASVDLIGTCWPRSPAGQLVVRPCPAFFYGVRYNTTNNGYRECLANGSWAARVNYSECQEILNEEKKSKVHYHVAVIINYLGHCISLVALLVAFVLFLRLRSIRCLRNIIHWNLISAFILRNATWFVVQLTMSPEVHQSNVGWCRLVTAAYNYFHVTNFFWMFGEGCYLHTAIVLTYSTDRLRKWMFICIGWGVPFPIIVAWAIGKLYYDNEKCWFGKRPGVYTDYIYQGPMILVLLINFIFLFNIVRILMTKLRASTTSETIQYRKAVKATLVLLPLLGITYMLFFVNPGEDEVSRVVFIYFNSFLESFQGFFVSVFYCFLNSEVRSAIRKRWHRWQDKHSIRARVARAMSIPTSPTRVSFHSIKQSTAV

Test [7] addresses Beta-3 adrenergic receptor (Homo sapiens, UniProt P13945).
Test [8] has as its target T4, Gastric inhibitory polypeptide receptor (Homo sapiens, UniProt P48546).
T4 sequence (P48546 whole entry): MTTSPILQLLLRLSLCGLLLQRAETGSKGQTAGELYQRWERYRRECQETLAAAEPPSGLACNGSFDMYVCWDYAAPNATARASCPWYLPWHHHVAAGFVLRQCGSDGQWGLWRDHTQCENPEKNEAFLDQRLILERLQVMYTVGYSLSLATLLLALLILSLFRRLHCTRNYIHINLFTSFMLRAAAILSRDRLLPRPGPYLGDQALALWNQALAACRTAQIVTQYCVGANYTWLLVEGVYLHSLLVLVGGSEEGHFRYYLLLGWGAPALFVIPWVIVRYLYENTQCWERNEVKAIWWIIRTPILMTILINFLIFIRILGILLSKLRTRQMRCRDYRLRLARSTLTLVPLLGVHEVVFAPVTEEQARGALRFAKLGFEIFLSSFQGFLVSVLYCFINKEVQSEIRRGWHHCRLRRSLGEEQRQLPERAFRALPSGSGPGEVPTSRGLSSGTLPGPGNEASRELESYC

For another test, the target named is Histamine H2 receptor (Homo sapiens, UniProt P25021).
Histamine H2 receptor, sequence (P25021 whole entry): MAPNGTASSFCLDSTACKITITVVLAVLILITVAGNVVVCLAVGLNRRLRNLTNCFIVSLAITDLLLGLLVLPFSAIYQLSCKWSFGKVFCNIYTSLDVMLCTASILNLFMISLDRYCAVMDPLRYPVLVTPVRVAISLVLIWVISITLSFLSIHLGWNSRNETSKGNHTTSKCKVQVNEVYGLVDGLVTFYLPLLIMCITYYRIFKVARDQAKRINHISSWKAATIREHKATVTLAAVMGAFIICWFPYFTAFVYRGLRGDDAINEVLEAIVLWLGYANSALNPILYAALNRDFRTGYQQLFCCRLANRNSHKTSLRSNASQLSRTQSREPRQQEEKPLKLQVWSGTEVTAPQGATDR
For test [9], the target named is T5, Muscarinic acetylcholine receptor M2 (Homo sapiens, UniProt P08172).
T5 sequence (P08172 whole entry): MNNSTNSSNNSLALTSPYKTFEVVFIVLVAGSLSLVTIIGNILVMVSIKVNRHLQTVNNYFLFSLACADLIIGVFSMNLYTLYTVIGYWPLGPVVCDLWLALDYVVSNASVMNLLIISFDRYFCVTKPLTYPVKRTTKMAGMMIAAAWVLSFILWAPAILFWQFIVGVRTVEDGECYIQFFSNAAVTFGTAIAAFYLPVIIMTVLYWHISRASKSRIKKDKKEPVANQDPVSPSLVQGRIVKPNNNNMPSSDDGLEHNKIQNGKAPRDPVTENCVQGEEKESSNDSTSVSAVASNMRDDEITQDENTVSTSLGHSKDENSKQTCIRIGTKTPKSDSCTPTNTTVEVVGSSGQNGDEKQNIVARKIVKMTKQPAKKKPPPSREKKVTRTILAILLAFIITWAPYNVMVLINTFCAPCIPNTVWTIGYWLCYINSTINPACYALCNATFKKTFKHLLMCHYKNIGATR
Also: assay procedure not described here.

Beta-3 adrenergic receptor, sequence (P13945 whole entry): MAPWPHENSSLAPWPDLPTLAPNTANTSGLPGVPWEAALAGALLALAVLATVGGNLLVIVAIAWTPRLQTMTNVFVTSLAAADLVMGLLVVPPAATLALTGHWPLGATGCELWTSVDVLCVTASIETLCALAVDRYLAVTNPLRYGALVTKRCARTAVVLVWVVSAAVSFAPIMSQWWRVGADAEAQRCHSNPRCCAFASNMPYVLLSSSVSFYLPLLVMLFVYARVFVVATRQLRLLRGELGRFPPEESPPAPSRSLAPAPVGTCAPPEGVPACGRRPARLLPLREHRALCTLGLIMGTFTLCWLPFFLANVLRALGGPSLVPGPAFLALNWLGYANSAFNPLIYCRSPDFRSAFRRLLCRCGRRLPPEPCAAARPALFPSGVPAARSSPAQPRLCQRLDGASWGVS

Regarding `CCOc1cc([C@@H](CS(C)(=O)=O)N2C(=O)c3cccc(NC(C)=O)c3C2=O)ccc1OC`, the half-maximal activity concentration (AC50) in test [1], in [2], in [3] and in test [4] was more than 30 µM each time.

As to `CC(=O)Nc1ccc(CC(=O)O)cc1` [ACTARIT], the AC50 (on Mu-type opioid receptor; in test [1]; in test [2]) was more than 30 µM each time.

The compound `CC(C(=O)O)c1ccc2oc(-c3ccc(Cl)cc3)nc2c1` (configuration not stated) [BENOXAPROFEN] came in with a half-maximal activity concentration (AC50) at Mu-type opioid receptor of more than 30 µM.

In the case of `CC1(C)S[C@@H]2[C@H](NC(=O)C(C(=O)O)c3ccccc3)C(=O)N2[C@H]1C(=O)O` (some centres not stated) [CARBENICILLIN], the half-maximal activity concentration (AC50) (at Mu-type opioid receptor; in test [1]; in test [2]; in test [3]; in test [4]) was more than 30 µM each time.

With `Cc1nnc(SCC2=C(C(=O)O)N3C(=O)[C@@H](NC(=O)Cn4cnnn4)[C@H]3SC2)s1` [CEFAZOLIN], the concentration at half-maximal activity (AC50) on Mu-type opioid receptor is more than 30 µM; in [1], more than 300 µM; in [2], more than 300 µM; in test [3], more than 2400 µM; in [4] it was more than 2400 µM.

`CC=CC1=C(C(=O)O)N2C(=O)[C@@H](NC(=O)[C@H](N)c3ccc(O)cc3)[C@H]2SC1` [CEFPROZIL]: the concentration at half-maximal activity (AC50) (on Mu-type opioid receptor; in test [1]; in test [2]) was more than 30 µM throughout.

On to `CC(C)(O/N=C(\C(=O)N[C@@H]1C(=O)N2C(C(=O)[O-])=C(C[n+]3ccccc3)CS[C@H]12)c1csc(N)n1)C(=O)O` [CEFTAZIDIME], for which the AC50 is more than 30 µM on Mu-type opioid receptor; more than 300 µM in test [1]; more than 300 µM in test [2]; more than 2400 µM in test [3]; more than 2400 µM in test [4].

On to `CCCNC(=O)NS(=O)(=O)c1ccc(Cl)cc1` [CHLORPROPAMIDE], for which the concentration at half-maximal activity (AC50) in test [5], in test [6], in test [7] and in test [8] was more than 30 µM throughout.

Turning to `Clc1ccc(Cn2c(CN3CCCC3)nc3ccccc32)cc1` [CLEMIZOLE], the AC50 in test [1] was 13 µM; in [2], more than 30 µM; in [3] it was more than 30 µM; in test [4], more than 30 µM.

For `CCC(=O)O[C@]1(C(=O)CCl)[C@@H](C)C[C@H]2[C@@H]3CCC4=CC(=O)C=C[C@]4(C)[C@@]3(F)[C@@H](O)C[C@@]21C` [CLOBETASOL PROPIONATE], the AC50 (at Mu-type opioid receptor; in test [3]) was more than 30 µM throughout.

With `Cc1nc(Nc2ncc(C(=O)Nc3c(C)cccc3Cl)s2)cc(N2CCN(CCO)CC2)n1` [DASATINIB], the AC50 in test [1] is more than 30 µM; in [2] it was more than 30 µM; on Histamine H2 receptor, more than 10 µM; in [9] it was more than 10 µM.

Turning to `CC(C)Cc1ccc([C@H](C)C(=O)O)cc1` [DEXIBUPROFEN], the concentration at half-maximal activity (AC50) in [3] and in [4] was more than 30 µM in each case.

In the case of `O=C(O)Cc1ccccc1Nc1c(Cl)cccc1Cl` [DICLOFENAC], the half-maximal activity concentration (AC50) in test [5] was more than 30 µM; in test [6] it was more than 30 µM; in [7], more than 30 µM; at Histamine H2 receptor, more than 10 µM; in test [8], more than 30 µM; in test [9] it was more than 10 µM.

As for `CNC[C@H](O)c1ccc(O)c(O)c1` [EPINEPHRINE], the concentration at half-maximal activity (AC50) in [3] was more than 30 µM.

Consider `O=C(O)Cc1ccccc1Oc1ccc(Cl)cc1Cl` [FENCLOFENAC], for which the half-maximal activity concentration (AC50) was more than 10 µM in test [1]; more than 10 µM in test [2]; more than 30 µM in test [5]; more than 30 µM in test [6]; more than 30 µM in test [7]; more than 10 µM on Histamine H2 receptor. Further, the AC50 in test [8] is more than 30 µM; in [9], more than 10 µM.

Take `Cc1onc(-c2c(F)cccc2Cl)c1C(=O)N[C@@H]1C(=O)N2[C@@H]1SC(C)(C)[C@@H]2C(=O)O` [FLOXACILLIN]: the AC50 in test [1], in test [2], in test [3] and in test [4] was more than 30 µM throughout.

As to `Cc1ccc(C)c(OCCCC(C)(C)C(=O)O)c1` [GEMFIBROZIL], the concentration at half-maximal activity (AC50) in test [5] is more than 30 µM; in test [6] it was more than 30 µM; in [7], more than 30 µM; at Histamine H2 receptor it was more than 10 µM; in test [8] it was more than 30 µM; in test [9], more than 10 µM.

Take `CCCCCCCN(CC)CCCC(O)c1ccc(NS(C)(=O)=O)cc1` (configuration not stated) [IBUTILIDE]: the values for the concentration at half-maximal activity (AC50) (at Mu-type opioid receptor; in test [1]; in [2]) were more than 30 µM, 18 µM and 21 µM, respectively.

Take `CC[C@H](C)C(=O)O[C@H]1C[C@@H](C)C=C2C=C[C@H](C)[C@H](CC[C@@H]3C[C@@H](O)CC(=O)O3)[C@H]21` [LOVASTATIN]: the concentration at half-maximal activity (AC50) is more than 30 µM in test [5]; more than 30 µM in test [6]; 11.6 µM in test [7]; more than 10 µM on Histamine H2 receptor; more than 30 µM in test [8]; more than 10 µM in test [9].

With `CC[C@@H](CO)NC(=O)[C@@H]1C=C2c3cccc4c3c(cn4C)C[C@H]2N(C)C1` [METHYSERGIDE], the AC50 in test [5] was more than 30 µM; in [6], more than 30 µM; in test [7], more than 30 µM; at Histamine H2 receptor it was 2.44 µM; in [8] it was more than 30 µM; in test [9], more than 10 µM.

Regarding `CNC(=C[N+](=O)[O-])NCCSCc1csc(CN(C)C)n1` [NIZATIDINE], at Mu-type opioid receptor, the concentration at half-maximal activity (AC50) is more than 30 µM.

As to `CN1Cc2c(N)cccc2C(c2ccccc2)C1` (configuration not stated) [NOMIFENSINE], the half-maximal activity concentration (AC50) is 1.4 µM at Mu-type opioid receptor; more than 30 µM in test [1]; more than 30 µM in [2]; more than 30 µM in [3]; more than 30 µM in test [4].

Turning to `Cn1cc(C(=O)[C@@H]2CCc3nc[nH]c3C2)c2ccccc21` [RAMOSETRON], the values for the AC50 (on Mu-type opioid receptor; in [1]; in [2]) were more than 30 µM, 0.34 µM and more than 30 µM, respectively.

With `CN(CCOc1ccc(CC2SC(=O)NC2=O)cc1)c1ccccn1` (configuration not stated) [ROSIGLITAZONE], the concentration at half-maximal activity (AC50) on Mu-type opioid receptor is more than 30 µM; in [5] it was more than 30 µM; in test [6], more than 30 µM; in test [7] it was more than 30 µM; on Histamine H2 receptor, more than 10 µM; in test [8] it was more than 30 µM. The compound also registered a concentration at half-maximal activity (AC50) in test [9] of more than 10 µM.

For `S=P(N1CC1)(N1CC1)N1CC1` [THIOTEPA], the concentration at half-maximal activity (AC50) is 9.3 µM in test [2], more than 30 µM in test [3] and more than 30 µM in [4].

Take `CC(C)[C@H](N)C(=O)OCCOCn1cnc2c(=O)[nH]c(N)nc21` [VALACYCLOVIR]: the half-maximal activity concentration (AC50) in test [5] is more than 30 µM; in [6] it was more than 30 µM; in test [7], more than 30 µM; on Histamine H2 receptor, more than 10 µM; in test [8] it was more than 30 µM; in test [9], more than 10 µM.
